Experimental data reported in the supplement of paper PMC10307832.

Experiments:
Test in all cases: relative viability (nuclei count vs DMSO), 5 days (fraction); higher = more cells survive
Obatoclax + Pemetrexed = compound: COC1=CC(c2cc3ccccc3[nH]2)=N/C1=C\c1[nH]c(C)cc1C [Obatoclax] + Nc1nc2[nH]cc(CCc3ccc(C(=O)N[C@@H](CCC(=O)O)C(=O)O)cc3)c2c(=O)[nH]1 [Pemetrexed] (partner 0.2 µM)
In short: (§1)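 One day after seeding in 1536-well plates, lung cancer cell lines were dosed by pin tool. Dosing was either single-drug or a fixed anchor-drug dose plus five library-drug doses (not always all listed) in √10 steps. After 5 days, nuclei were stained in one fix-and-stain step and counted on 4× images, and relative viability is the nuclei count of treated wells over that of vehicle wells, given as the median of duplicate plates.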

Bortezomib + Pictilisib = compound: CC(C)C[C@H](NC(=O)[C@H](Cc1ccccc1)NC(=O)c1cnccn1)B(O)O [Bortezomib] + CS(=O)(=O)N1CCN(Cc2cc3nc(-c4cccc5[nH]ncc45)nc(N4CCOCC4)c3s2)CC1 [Pictilisib] (partner 1 µM)
In short: as §1

Obatoclax + Pictilisib = compound: COC1=CC(c2cc3ccccc3[nH]2)=N/C1=C\c1[nH]c(C)cc1C [Obatoclax] + CS(=O)(=O)N1CCN(Cc2cc3nc(-c4cccc5[nH]ncc45)nc(N4CCOCC4)c3s2)CC1 [Pictilisib] (partner 1 µM)
In short: as §1

[1] = compound: CC1=CC(=NN1)NC2=CC(=NC(=N2)/C=C/C3=CC=CC=C3)N4CCN(CC4)C + Nc1ncn([C@H]2C[C@H](O)[C@@H](CO)O2)c(=O)n1 [Decitabine] (partner 2 µM)
In short: as §1

Cell Line	relative viability (Obatoclax + Pemetrexed; first compound 0.01 µM)	relative viability (Obatoclax + Pemetrexed; first compound 0.03162 µM)	relative viability (Obatoclax + Pemetrexed; first compound 0.1 µM)	relative viability (Obatoclax + Pemetrexed; first compound 0.3162 µM)	relative viability (Obatoclax + Pemetrexed; first compound 1 µM)	relative viability (Bortezomib + Pictilisib; first compound 0.0002 µM)	relative viability (Bortezomib + Pictilisib; first compound 0.000632 µM)	relative viability (Bortezomib + Pictilisib; first compound 0.002 µM)	relative viability (Bortezomib + Pictilisib; first compound 0.006325 µM)	relative viability (Bortezomib + Pictilisib; first compound 0.02 µM)	relative viability (Obatoclax + Pictilisib; first compound 0.01 µM)	relative viability (Obatoclax + Pictilisib; first compound 0.03162 µM)	relative viability (Obatoclax + Pictilisib; first compound 0.1 µM)	relative viability (Obatoclax + Pictilisib; first compound 0.3162 µM)	relative viability (Obatoclax + Pictilisib; first compound 1 µM)	relative viability ([1]; first compound 0.08 µM)	relative viability ([1]; first compound 0.253 µM)	relative viability ([1]; first compound 0.8 µM)	relative viability ([1]; first compound 2.53 µM)	relative viability ([1]; first compound 8 µM)
LCLC-97TM1	0.171	0.188	0.18	0.178	0.161	0.177	0.178	0.195	0.132	0.207	0.18	0.201	0.325	0.139	0.154	0.176	0.22	0.244	0.182	0.0703
LCLC-103H	0.461	0.487	0.379	0.519	0.528	0.529	0.509	0.549	0.511	0.383	0.602	0.565	0.719	0.612	0.65	0.746	0.774	0.72	0.713	0.64
LK-2	0.273	0.227	0.248		0.317		0.559	0.295	0.251	0.245	0.566	0.639	0.655	0.502	0.581	0.215	0.327	0.274	0.175	0.0787
LOU-NH91	0.334	0.382	0.323	0.379	0.47	0.509	0.479	0.395	0.339	0.317	0.541	0.503	0.505	0.469	0.533	0.793	0.856	0.807	0.809	0.473
LU99A	0.16	0.172		0.183	0.18	0.385		0.35	0.328	0.169	0.337	0.298	0.364	0.263	0.2	0.86	0.892	0.73	0.409	0.214
LXF-289	0.847	0.907	0.835	0.94	0.854	0.829	0.81	0.717	0.07	0.0457	0.778	0.773	0.751	0.72	0.694	0.371	0.383	0.324	0.288	0.248
NCI-H23	0.665	0.636	0.717	0.561	0.468		0.407	0.381	0.144	0.131	0.43	0.442	0.57	0.4	0.197	0.302	0.326	0.29	0.177	0.141
